We go through 20 compounds from patent US11814367B2, “Inhibitors of glycogen synthase 1 (GYS1) and methods of use thereof” (Maze Therapeutics, Inc., priority 2021, dated 2023).

For test [1], the system named is hGYS1 enzyme / glycogen synthesis in HeLa cells. The test is described as follows: GYS1 cell based assay (glycogen synthesis, Glucose-glo). On the set-up: species or system human. The note with it: Homo sapiens, HeLa, 24 h, 24 h incubation, 20 mM glucose, geometric mean of at least 2 runs. In outline:
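HeLa cells starved 24 h in medium containing only 1× Glutamax were plated onto compound in medium with 20 mM glucose (1% DMSO final) for 24 h, 37 °C, 5% CO2. Acid lysates were Tris-quenched, glucoamylase-digested (pH 5.3, 1 h, 37 °C) and read by Glucose-glo luminescence. IC50 came from Hill fits, as geometric mean of ≥2 runs.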

For test [2], the target named is hGYS2 enzyme (recombinant hGYS2/GN1 protein) (Homo sapiens (Human), UniProt P54840). The test is described as follows: GYS2 coupled enzyme assay (PK/LDH). Format: biochemical. The note with it: geometric mean of at least 2 assay runs on separate days, read-out: Avg_IC50. Summed up:
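hGYS2/GN1 200 nM; UDP-Glc 2 mM; glycogen 0.2%; G6P 2 mM; PEP 2 mM, NADH 0.6 mM, PK/LDH 20 U/mL. 50 mM Tris pH 7.5, MgCl2, KCl, BSA, TCEP, 2.5% DMSO. Kinetic A340, 10 min. IC50 = geomean of ≥2 runs.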

Test [3] concerns the target hGYS1 enzyme (recombinant hGYS1/GN1 protein) (Homo sapiens (Human), UniProt P13807). The test is described as follows: GYS1 coupled enzyme assay (PK/LDH). Format: biochemical. The note with it: hGYS1/GN1 50 nM, UDP-Glucose 0.8 mM, G6P 1 mM; geometric mean of at least 2 runs.

pIC50: −log10 of the molar value.

hGYS2 enzyme (recombinant hGYS2/GN1 protein), sequence (P54840 whole entry): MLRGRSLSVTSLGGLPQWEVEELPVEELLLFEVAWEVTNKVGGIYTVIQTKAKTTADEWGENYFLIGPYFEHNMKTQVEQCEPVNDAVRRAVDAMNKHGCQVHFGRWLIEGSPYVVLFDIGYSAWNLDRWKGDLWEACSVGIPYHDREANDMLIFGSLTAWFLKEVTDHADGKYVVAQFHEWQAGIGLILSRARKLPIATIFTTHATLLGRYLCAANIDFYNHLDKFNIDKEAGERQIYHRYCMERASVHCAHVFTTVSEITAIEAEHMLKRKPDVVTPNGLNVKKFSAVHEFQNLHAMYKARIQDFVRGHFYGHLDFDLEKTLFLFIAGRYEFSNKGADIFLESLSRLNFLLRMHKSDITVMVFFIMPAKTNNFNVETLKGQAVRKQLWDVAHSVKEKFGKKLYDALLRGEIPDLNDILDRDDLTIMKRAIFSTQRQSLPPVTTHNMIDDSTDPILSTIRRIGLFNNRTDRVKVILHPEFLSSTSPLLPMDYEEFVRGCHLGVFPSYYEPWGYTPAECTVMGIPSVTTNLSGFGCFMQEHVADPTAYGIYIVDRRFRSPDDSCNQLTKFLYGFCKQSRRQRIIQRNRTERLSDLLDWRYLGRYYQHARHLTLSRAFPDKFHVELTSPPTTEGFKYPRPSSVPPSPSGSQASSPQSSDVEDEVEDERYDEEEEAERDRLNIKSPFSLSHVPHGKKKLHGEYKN
hGYS2 enzyme (recombinant hGYS2/GN1 protein), sequence (P46976 whole entry partner): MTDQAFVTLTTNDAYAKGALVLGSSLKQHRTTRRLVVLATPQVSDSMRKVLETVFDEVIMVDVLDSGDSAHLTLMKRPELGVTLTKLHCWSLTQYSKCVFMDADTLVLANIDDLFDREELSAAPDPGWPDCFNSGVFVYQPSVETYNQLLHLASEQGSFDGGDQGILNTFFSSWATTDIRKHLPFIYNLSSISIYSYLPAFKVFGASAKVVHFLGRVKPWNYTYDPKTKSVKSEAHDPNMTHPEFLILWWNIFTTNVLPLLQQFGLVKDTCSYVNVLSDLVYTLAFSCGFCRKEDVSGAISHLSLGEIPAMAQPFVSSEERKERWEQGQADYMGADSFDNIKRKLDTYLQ
hGYS1 enzyme (recombinant hGYS1/GN1 protein), sequence (P13807 whole entry): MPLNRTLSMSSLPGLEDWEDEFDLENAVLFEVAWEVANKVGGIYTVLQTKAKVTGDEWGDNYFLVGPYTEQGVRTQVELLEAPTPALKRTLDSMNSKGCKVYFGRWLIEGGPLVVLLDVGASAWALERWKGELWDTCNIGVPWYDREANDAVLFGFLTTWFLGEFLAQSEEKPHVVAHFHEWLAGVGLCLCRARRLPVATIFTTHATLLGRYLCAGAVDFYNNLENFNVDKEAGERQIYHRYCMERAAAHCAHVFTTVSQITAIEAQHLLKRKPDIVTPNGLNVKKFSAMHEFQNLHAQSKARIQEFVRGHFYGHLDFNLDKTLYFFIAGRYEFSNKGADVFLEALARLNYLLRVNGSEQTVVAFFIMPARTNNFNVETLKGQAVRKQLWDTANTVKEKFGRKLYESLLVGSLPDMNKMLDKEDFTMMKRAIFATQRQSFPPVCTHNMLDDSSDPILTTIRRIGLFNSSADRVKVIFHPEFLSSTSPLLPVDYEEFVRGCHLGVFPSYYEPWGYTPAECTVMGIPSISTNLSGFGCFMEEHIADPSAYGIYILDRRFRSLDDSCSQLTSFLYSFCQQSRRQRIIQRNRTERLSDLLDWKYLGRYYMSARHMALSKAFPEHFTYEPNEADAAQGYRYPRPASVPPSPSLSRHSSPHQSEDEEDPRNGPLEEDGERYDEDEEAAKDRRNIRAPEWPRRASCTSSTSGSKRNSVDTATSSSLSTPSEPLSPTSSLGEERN
hGYS1 enzyme (recombinant hGYS1/GN1 protein), sequence (P46976 whole entry partner): as the sequence (P46976 whole entry partner) above

With `Cc1cc(CC(=O)N2C[C@H](F)C[C@H]2C(=O)N[C@@H](c2ccccc2)c2ccc(C3CC3)c(F)n2)c[nH]c1=O` [Compound 732, (2S,4R)-N-[(S)-(5-cyclopropyl-6-fluoropyridin-2-yl)(phenyl)methyl]-4-fluoro-1-[2-(5-methyl-6-oxo-1,6-dihydropyridin-3-yl)acetyl]pyrrolidine-2-carboxamide], the pIC50 is 5.86 in test [1], less than 4.00 in test [2] and 7.57 in test [3].
In the same order, the values of `CC(C)c1ccc([C@@H](NC(=O)[C@@H]2C[C@@H](F)CN2C(=O)CNC(=O)N2CCC2)c2ccccc2)nc1` [Compound 265, (2S,4R)-1-{2-[(azetidine-1-carbonyl)amino]acetyl}-4-fluoro-N-[(S)-phenyl[5-(propan-2-yl)pyridin-2-yl]methyl]pyrrolidine-2-carboxamide] are 6.08, less than 4.00 and 7.39.
In the same order, the values of `CC(C)c1ccc([C@@H](NC(=O)[C@@H]2C[C@@H](F)CN2C(=O)Cc2cn(C)nn2)c2ccccc2)cc1F` [Compound 336] are 6.55, less than 4.00 and 7.82.
In the same order, the values of `CC(C)(C)c1ccc([C@@H](NC(=O)[C@@H]2C[C@@H](F)CN2C(=O)Cc2cnn[nH]2)c2ccccc2)cc1F` [Compound 685, (2S,4R)-N-[(S)-(4-tert-butyl-3-fluorophenyl)(phenyl)methyl]-4-fluoro-1-[2-(1H-1,2,3-triazol-5-yl)acetyl]pyrrolidine-2-carboxamide] are 5.57, less than 4.00 and 6.69.
As for `CC1(c2ccc([C@@H](NC(=O)[C@@H]3C[C@@H](F)CN3C(=O)CN3CCN(C(=O)OCC(F)(F)F)CC3=O)c3ccccc3)cc2F)CC1` [Compound 578, 2,2,2-trifluoroethyl 4-{2-[(2S,4R)-4-fluoro-2-{[(S)-[3-fluoro-4-(1-methylcyclopropyl)phenyl](phenyl)methyl]carbamoyl}pyrrolidin-1-yl]-2-oxoethyl}-3-oxopiperazine-1-carboxylate], the pIC50 in test [1] was 5.18; in test [2], 4.10; in test [3], 6.21.
With `CC(C)c1ccc([C@@H](NC(=O)[C@@H]2C[C@@H](F)CN2C(=O)Cc2ccccn2)c2ccccc2)cc1F` [Compound 349, (2S,4R)-4-fluoro-N-[(S)-[3-fluoro-4-(propan-2-yl)phenyl](phenyl)methyl]-1-[2-(pyridin-2-yl)acetyl]pyrrolidine-2-carboxamide], the pIC50 was 6.40 in test [1], less than 4.00 in test [2] and 7.60 in test [3].
Turning to `CC(C)c1ccc(C(CC2CC2)NC(=O)[C@@H]2C[C@@H](F)CN2C(=O)Cc2cnn[nH]2)cc1F` (single isomer, unassigned) [Compound 653, (2S,4R)-N-[(1S) or (1R)-2-cyclopropyl-1-[3-fluoro-4-(propan-2-yl)phenyl]ethyl]-4-fluoro-1-[2-(1H-1,2,3-triazol-5-yl)acetyl]pyrrolidine-2-carboxamide], the pIC50 in test [1] was 5.43; in test [2] it was less than 4.00; in test [3], 6.58.
On to `CC(=O)N(CCC(=O)N1C[C@H](F)C[C@H]1C(=O)N[C@@H](c1ccccc1)c1ccc(C(C)C)cc1)c1ccn(C)n1` [Compound 2, (2S,4R)-4-fluoro-1-{3-[N-(1-methyl-1H-pyrazol-3-yl)acetamido)propanoyl}-N-[(S)-phenyl[4-(propan-2-yl)phenyl]methyl]pyrrolidine-2-carboxamide], for which the pIC50 is 5.96 in test [1], less than 4.00 in test [2] and 7.23 in test [3].
In the case of `CC1(c2ccc([C@@H](NC(=O)[C@@H]3C[C@@H](F)CN3C(=O)CN3C(=O)Cc4ccccc43)c3ccccc3)cc2F)CC1` [Compound 576, (2S,4R)-4-fluoro-N-[(S)-[3-fluoro-4-(1-methylcyclopropyl)phenyl](phenyl)methyl]-1-[2-(2-oxo-2,3-dihydro-1H-indol-1-yl)acetyl]pyrrolidine-2-carboxamide], the pIC50 is 5.74 in test [1], less than 4.00 in test [2] and 7.07 in test [3].
In the same order, the values of `CCn1c(=O)c(C)cn(CC(=O)N2C[C@H](F)C[C@H]2C(=O)N[C@H](c2ccccc2)c2ccc(C3CC(F)(F)C3)c(F)n2)c1=O` [Compound 518, (2S,4R)-N-[(R)-[5-(3,3-difluorocyclobutyl)-6-fluoropyridin-2-yl](phenyl)methyl]-1-[2-(3-ethyl-5-methyl-2,4-dioxo-1,2,3,4-tetrahydropyrimidin-1-yl)acetyl]-4-fluoropyrrolidine-2-carboxamide] are 4.97, less than 4.00 and 5.82.
The corresponding values for `CCn1c(=O)ccn(CC(=O)N2C[C@H](F)C[C@H]2C(=O)N[C@@H](c2ccccc2)c2ccc(C(C)C)c(F)n2)c1=O` [Compound 786, (2S,4R)-1-[2-(3-ethyl-2,4-dioxo-1,2,3,4-tetrahydropyrimidin-1-yl)acetyl]-4-fluoro-N-[(S)-[6-fluoro-5-(propan-2-yl)pyridin-2-yl](phenyl)methyl] pyrrolidine-2-carboxamide] are 7.30, less than 4.00 and 8.52.
With `CC(C)c1ccc([C@@H](NC(=O)[C@@H]2C[C@@H](F)CN2C(=O)Cn2cc(N(C)C)nn2)c2ccccc2)nc1F` [Compound 393, (2S,4R)-1-{2-[4-(dimethylamino)-1H-1,2,3-triazol-1-yl]acetyl}-4-fluoro-N-[(S)-[6-fluoro-5-(propan-2-yl)pyridin-2-yl](phenyl)methyl] pyrrolidine-2-carboxamide], the pIC50 in test [1] was 6.92; in test [2] it was less than 4.00; in test [3] it was 8.10.
In the case of `CC(C)c1ccc([C@@H](NC(=O)[C@@H]2C[C@@H](F)CN2C(=O)CN2CC(=O)N(C)CC2=O)c2ccccc2)cc1F` [Compound 339, (2S,4R)-4-fluoro-N-[(S)-[3-fluoro-4-(propan-2-yl)phenyl](phenyl)methyl]-1-[2-(4-methyl-2,5-dioxopiperazin-1-yl)acetyl]pyrrolidine-2-carboxamide], the pIC50 in test [1] was 6.51; in test [2], less than 4.00; in test [3] it was 7.74.
For `CC(C)c1ccc([C@@H](NC(=O)[C@@H]2C[C@@H](F)CN2C(=O)Cc2nn(C)c(=O)o2)c2ccccc2)nc1` [Compound 266, (2S,4R)-4-fluoro-1-[2-(4-methyl-5-oxo-4,5-dihydro-1,3,4-oxadiazol-2-yl)acetyl]-N-[(S)-phenyl[5-(propan-2-yl)pyridin-2-yl]methyl]pyrrolidine-2-carboxamide], the pIC50 in test [1] was 5.91; in test [2] it was less than 4.00; in test [3], 7.05.
In the same order, the values of `Cn1c(=O)ccn(CC(=O)N2C[C@H](F)C[C@H]2C(=O)N[C@@H](c2ccccc2)c2ccc(C3CC3)c(F)c2)c1=O` [Compound 449, (2S,4R)-N-[(S)-(4-cyclopropyl-3-fluorophenyl)(phenyl)methyl]-4-fluoro-1-[2-(3-methyl-2,4-dioxo-1,2,3,4-tetrahydropyrimidin-1-yl)acetyl]pyrrolidine-2-carboxamide] are 6.15, less than 4.00 and 7.41.
In the same order, the values of `Cc1cc([C@@H](NC(=O)[C@@H]2C[C@@H](F)CN2C(=O)Cc2nnc(C(F)F)o2)c2ccccc2)ncc1C(C)C` [Compound 602, (2S,4R)-1-(2-(5-(difluoromethyl)-1,3,4-oxadiazol-2-yl)acetyl)-4-fluoro-N—((S)-(5-isopropyl-4-methylpyridin-2-yl)(phenyl)methyl)pyrrolidine-2-carboxamide] are 6.12, less than 4.00 and 7.04.
Regarding `CC1(c2ccc([C@H](NC(=O)[C@@H]3C[C@@H](F)CN3C(=O)Cc3n[nH]c4ccccc34)c3ccccc3)nc2F)CC1` [Compound 590, (2S,4R)-4-fluoro-N-[(R)-[6-fluoro-5-(1-methylcyclopropyl)pyridin-2-yl](phenyl)methyl]-1-[2-(1H-indazol-3-yl)acetyl]pyrrolidine-2-carboxamide], the pIC50 is 4.63 in test [1], less than 4.00 in test [2] and 5.59 in test [3].
The corresponding values for `CC(C)c1ccc([C@@H](NC(=O)[C@@H]2C[C@@H](F)CN2C(=O)Cc2cccnn2)c2ccccc2)cc1F` [Compound 343] are 6.34, less than 4.00 and 7.57.
On to `CCn1c(=O)c(C)cn(CC(=O)N2C[C@H](F)C[C@H]2C(=O)N[C@@H](c2ccccc2)c2ccc(C3CC3)c(F)n2)c1=O` [Compound 733, (2S,4R)-N-[(S)-(5-cyclopropyl-6-fluoropyridin-2-yl)(phenyl)methyl]-1-[2-(3-ethyl-5-methyl-2,4-dioxo-1,2,3,4-tetrahydropyrimidin-1-yl)acetyl]-4-fluoropyrrolidine-2-carboxamide], for which the pIC50 is 6.82 in test [1], less than 4.00 in test [2] and 8.30 in test [3].
In the same order, the values of `Cc1coc(CC(=O)N2C[C@H](F)C[C@H]2C(=O)N[C@@H](c2ccccc2)c2ccc(C3CC(F)(F)C3)c(F)c2)n1` [Compound 554, (2S,4R)-N-[(S)-[4-(3,3-difluorocyclobutyl)-3-fluorophenyl](phenyl)methyl]-4-fluoro-1-[2-(4-methyl-1,3-oxazol-2-yl)acetyl]pyrrolidine-2-carboxamide] are 6.42, less than 4.00 and 7.47.
